Results from US9609868B2, “Alkoximino-substituted anthranilic acid diamides as pesticides” (BAYER CROPSCIENCE AKTIENGESELLSCHAFT, priority 2013, dated 2017).

Legend:
[1] = log P by HPLC on reversed-phase column (C18), EEC directive 79/831 Annex V.A8; format: physicochemical; details: HPLC reversed-phase C18, 43° C., data refer to the E isomer
Protocol: The log P values reported in the tables and Preparation Examples above were determined in accordance with EEC directive 79/831 Annex V.A8 by HPLC (High Performance Liquid Chromatography) using a reversed-phase column (C18). Temperature 43° C. The calibration is effected with unbranched alkan-2-ones (having 3 to 16 carbon atoms), for which the log P values are known.

[2] = tested on: Boophilus microplus; test: Boophilus microplus - injection test (BOOPMI Inj); format: in vivo; details: application rate 20 μg/animal, injection into engorged adult female cattle ticks
Protocol: Boophilus microplus—Injection Test (BOOPMI Inj)
(§1) Solvent: dimethyl sulfoxide
To produce a suitable preparation of active compound, 10 mg of active compound are mixed with 0.5 ml of solvent and the concentrate is diluted with solvent to the desired concentration.
1 μl of the active compound solution is injected into the abdomen of 5 engorged adult female cattle ticks (Boophilus microplus). The animals are transferred into dishes and kept in a climate-controlled room.
The activity is assessed after the desired time by laying of fertile eggs. Eggs which are not visibly fertile are stored in a climate-controlled cabinet until the larvae hatch after about 42 days. An efficacy of 100% means that none of the ticks has laid any fertile eggs; 0% means that all the eggs are fertile.

[3] = tested on: Lucilia cuprina; test: Lucilia cuprina test (LUCICU); format: in vivo; details: application rate 100 ppm
Protocol: Lucilia cuprina-Test (LUCICU)
as §1
(§2) To produce a suitable preparation of active compound, 10 mg of active compound are mixed with 0.5 ml of dimethyl sulfoxide, and the concentrate is diluted with water to the desired concentration.
About 20 L1 larvae of the Australian sheep blowfly (Lucilia cuprina) are transferred into a test vessel containing minced horsemeat and the active compound preparation of the desired concentration.
After the desired time, the kill in % is determined. 100% means that all the larvae have been killed; 0% means that no larvae have been killed.

[4] = tested on: Musca domestica; test: Musca domestica test (MUSCDO); format: in vivo
Protocol: Musca domestica-Test (MUSCDO)
as §1, §2
Vessels containing a sponge treated with sugar solution and the active compound preparation of the desired concentration are populated with 10 adult houseflies (Musca domestica).
After the desired time, the kill in % is determined. 100% means that all of the flies have been killed; 0% means that none of the flies have been killed.

[5] = tested on: Myzus persicae; test: Myzus persicae - spray test (MYZUPE); format: in vivo; details: application rate 100 g/ha, Chinese cabbage leaf disks
Procedure, shortened: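 Chinese cabbage leaf disks carrying all stages of green peach aphid were sprayed with compound in acetone/DMF with emulsifier, diluted in water. After the chosen period, efficacy was scored as % aphids killed.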

[6] = tested on: Phaedon cochleariae; test: Phaedon cochleariae - spray test (PHAECO); format: in vivo; details: application rate 100 g/ha, Chinese cabbage leaf disks
Procedure, shortened: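 Active compound in acetone/dimethylformamide with alkylaryl polyglycol ether emulsifier was diluted with emulsifier-containing water to the test concentration and sprayed. After the set period, efficacy was scored as % larvae killed (100% = all beetle larvae dead, 0% = none).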

[7] = tested on: Spodoptera frugiperda; test: Spodoptera frugiperda - spray test (SPODFR); format: in vivo; details: application rate 100 g/ha, maize leaf disks
Procedure, shortened: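 Maize leaf disks sprayed with compound in acetone/DMF with alkylaryl polyglycol ether emulsifier, diluted in water to test concentration, then infested with armyworm caterpillars once dry. Efficacy given as % caterpillars killed (100% all, 0% none) after the chosen period.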

[8] = tested on: Tetranychus urticae; test: Tetranychus urticae - spray test, OP-resistant (TETRUR); format: in vivo; details: application rate 100 g/ha, bean leaf disks
Protocol: Tetranychus urticae—Spray Test, OP-Resistant (TETRUR)
Solvent: 78.0 parts by weight of acetone • • 1.5 parts by weight of dimethylformamide
Emulsifier: 0.5 parts by weight of alkylaryl polyglycol ether
To produce a suitable active compound preparation, 1 part by weight of active compound is mixed with the stated amounts of solvent and emulsifier, and the concentrate is diluted with emulsifier-containing water to the desired concentration.
Disks of bean leaves (Phaseolus vulgaris) infested with all stages of the greenhouse red spider mite (Tetranychus urticae) are sprayed with an active compound preparation of the desired concentration.
After the desired period of time, the efficacy in % is determined. 100% means that all the spider mites have been killed; 0% means that none of the spider mites have been killed.

Compound	log p ([1]; Table A)	efficacy (no fertile eggs laid) [2]	efficacy (kill of L1 larvae) [3]	efficacy (kill of adult houseflies) ([4]; application rate 100 ppm)	efficacy (aphids killed) [5]	efficacy (beetle larvae killed) [6]	efficacy (caterpillars killed) [7]	log p ([1]; Table C)	efficacy (kill of adult houseflies) ([4]; application rate 20 ppm)	efficacy (spider mites killed) [8]
CON=Cc1cc(C)c(NC(=O)c2cc(C(F)F)nn2-c2ncccc2Cl)c(C(=O)NNC(=O)OC)c1 (mixture of isomers) [A-39]	2.26	100%	100%	80%	90%	100%	100%	–	–	–
CNC(=O)c1cc(C=NOC)cc(C)c1NC(=O)c1cc(C(F)F)nn1-c1ncccc1Cl [C-28]	–	100%	100%	80%	90%	100%	100%	2.48	–	–
CON=Cc1cc(C)c(NC(=O)c2cc(OC)nn2-c2ncccc2Cl)c(C(=O)NC(C)C)c1 [C-24]	–	100%	100%	100%	100%	100%	100%	2.65	–	–
C#CCOC(=O)NNC(=O)c1cc(C=NOC)cc(C)c1NC(=O)c1cc(C(F)(F)F)nn1-c1ncccc1Cl [A-22]	2.86	100%	100%	–	100%	100%	100%	–	100%	100%
CON=Cc1cc(C)c(NC(=O)c2cc(C(F)F)nn2-c2ncccc2Cl)c(C(=O)NC(C)C)c1 [C-29]	–	100%	100%	–	100%	100%	100%	2.98	100%	–
CON=Cc1cc(C)c(NC(=O)c2cc(Br)nn2-c2ncccc2Cl)c(C(=O)NNC(=O)OC)c1 (mixture of isomers) [A-42]	2.38	100%	100%	80%	100%	100%	100%	–	–	–
CON=Cc1cc(C)c(NC(=O)c2cc(CF)nn2-c2ncccc2Cl)c(C(=O)NC2CC2)c1 [C-42]	–	100%	100%	90%	90%	100%	100%	2.38	–	100%
CCOC(=O)NNC(=O)c1cc(C=NOC)cc(C)c1NC(=O)c1cc(C(F)(F)F)nn1-c1ncccc1Cl [A-17]	2.92	100%	100%	–	90%	100%	100%	–	80%	90%
CON=Cc1cc(C)c(NC(=O)c2cc(C(F)F)nn2-c2ncccc2Cl)c(C(=O)NN(C)C(=O)OC)c1 (mixture of isomers) [A-41]	2.46	100%	100%	80%	90%	100%	100%	–	–	–
